Assay results from PubChem BioAssay AID844 (SRMLSC, 2007).
Active and inactive are the calls of the source. How the calls were made is not given here.

Tested on: MRP1 cells, doxorubicin viability shift, 10 uM compound
Assay: viability protection against doxorubicin, MRP-1 line – cell-based, doxorubicin EC50 shift, dose response (AID 844)
Settings: for EC50: measured here: doxorubicin EC50 with compound

Compound	fold increase in Dox EC50	EC50
CCOc1ccc(Cn2nnc(C(=O)NCCc3ccccc3)c2N)cc1	1.05 (inactive)	5.65 µM
COc1ccc(C2CC(c3ccccc3)=NN2C(=O)COC(=O)c2cccnc2Cl)cc1 (stereo not given)	0.63 (inactive)	3.4 µM
COc1ccc(CN=C2NC(=O)CC(C(=O)Nc3ccc(F)cc3)S2)cc1 (stereo not given)	1.01 (inactive)	5.47 µM
C=CCSC1=NC(=O)/C(=C/c2cccs2)S1	1.13 (inactive)	6.1 µM
O=C(CSc1nnc(-c2ccccc2)n1-c1ccc(Cl)cc1)N/N=C/c1ccco1	0.53 (inactive)	2.84 µM
O=[N+]([O-])c1ccc(O)c(N=Cc2sc3ccccc3c2O)c1	0.08 (inactive)	0.457 µM
COc1ccc(OCc2nc3ccc(S(=O)(=O)Nc4ccccc4Cl)cc3[nH]2)cc1	0.96 (inactive)	5.16 µM
O=C(Nc1ncc(Cc2ccc(C(F)(F)F)cc2)s1)c1ccc(-c2cccc([N+](=O)[O-])c2)o1	0.71 (inactive)	3.86 µM
O=C(c1cnn2c(C(F)(F)F)cc(-c3cccs3)nc12)N1CCN(C(c2ccccc2)c2ccccc2)CC1	0.17 (inactive)	0.916 µM
CC(OC(=O)c1snc(C(=O)NC2CCCCC2)c1N)C(=O)NC(C)(C)C (stereo not given)	1.1 (inactive)	5.93 µM
CCCC(=O)c1ccc(N2CCOCC2)c(F)c1	1.07 (inactive)	5.75 µM
COc1ccc(NC(=O)C(=O)N/N=C/c2cc(C)n(-c3cccc(Cl)c3Cl)c2C)c(OC)c1	1.43 (inactive)	7.74 µM
CCOC(=O)c1c(-c2ccc(C)o2)csc1NC(=O)CSc1ncn[nH]1	0.51 (inactive)	2.74 µM
COc1ccc(-n2c(SCC(=O)Nc3ccccc3)nc3c(c2=O)SCC3)cc1	0.22 (inactive)	1.18 µM
N#Cc1nc(COc2ccccc2)oc1N1CCCC1	0.77 (inactive)	4.13 µM
O=C1/C(=C\c2ccco2)SC(=S)N1c1ccc(O)cc1	0.34 (inactive)	1.84 µM
N#Cc1nc(COc2ccc(F)cc2)oc1N1CCC(Cc2ccccc2)CC1	0.99 (inactive)	5.35 µM
Brc1ccc(OCc2nnc3n2CCC3)cc1	1.67	9.02 µM
COc1ccccc1-c1nc(C#N)c(N2CCc3ccccc3C2)o1	0.37 (inactive)	1.99 µM
COC(=O)c1cn(NC(=O)c2cccnc2)c(=O)c2ccccc12	0.52 (inactive)	2.79 µM
Cc1nnc(NC(=O)C(C)Sc2nncn2C)s1 (stereo not given)	0.77 (inactive)	4.15 µM
Cn1nc(C(F)(F)F)c2cc(NC(=O)OCc3ccc(C(C)(C)C)cc3)sc21	0.74 (inactive)	4.02 µM
Cc1onc(-c2ccccc2Cl)c1C(=O)OCC(=O)Nc1ccc2c(c1)OCO2	1.19 (inactive)	6.42 µM
COc1cccc(/C=N/NC(=O)C(=O)NCc2ccco2)c1O	0.65 (inactive)	3.54 µM
CC1=C(C(=O)Nc2ccccc2C)C(c2ccc(C)o2)N2C(=O)CSC2=N1 (stereo not given)	1.01 (inactive)	5.43 µM
CCCCCCCOc1ccc(-c2ccc(C#N)cn2)cc1	0.67 (inactive)	3.63 µM
CC(=O)Nc1ccc(-n2c(C)nc(=O)c(-c3ccccc3)c2C)cc1	0.89 (inactive)	4.83 µM
O=C(Nc1ccc(C2CC2(Cl)Cl)cc1)c1ccccc1Br (stereo not given)	1.6	8.66 µM
COc1ccc(NC(=O)c2oc3ccccc3c2NC(=O)c2ccc3c(c2)OCO3)cc1	0.44 (inactive)	2.4 µM
CN1/C(=C\C(=O)c2oc3ccccc3c2N)C(C)(C)c2ccccc21	0.7 (inactive)	3.77 µM
